Our source for the Ki values is patent US9328106B2, “Cyclic ether pyrazol-4-yl-heterocyclyl-carboxamide compounds and methods of use” (Genentech, Inc., priority 2012, dated 2016).

For this test, the target named is PIM1 (Homo sapiens (Human), UniProt P11309). In words: biochemical. The class given is biochemical. The conditions noted are these: 20 pM PIM1, 1 μM FAM-peptide, 10 μM ATP, 90 minutes at room temperature; read-out: PIM1 LC3K (KI).
Sequence of PIM1 (P11309 whole entry): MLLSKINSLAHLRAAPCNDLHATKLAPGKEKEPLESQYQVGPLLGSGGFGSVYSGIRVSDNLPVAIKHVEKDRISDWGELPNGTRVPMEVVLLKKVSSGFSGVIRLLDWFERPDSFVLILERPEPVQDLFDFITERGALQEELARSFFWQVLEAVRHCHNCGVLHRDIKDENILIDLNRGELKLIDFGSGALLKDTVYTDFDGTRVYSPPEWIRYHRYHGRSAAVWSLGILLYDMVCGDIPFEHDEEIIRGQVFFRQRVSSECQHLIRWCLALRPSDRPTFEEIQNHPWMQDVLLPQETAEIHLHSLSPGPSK

Take `Cn1ncc(NC(=O)c2csc(-c3cncc(F)c3)n2)c1[C@@H]1CC[C@@H](N)[C@H](F)CO1` [Example 239, N-(5-((2S,5R,6S)-5-amino-6-fluorooxepan-2-yl)-1-methyl-1H-pyrazol-4-yl)-2-(5-fluoropyridin-3-yl)thiazole-4-carboxamide]: the Ki was determined as 2.66 nM.

`COCc1cc(F)c(-c2nc(C(=O)Nc3cnn(C)c3[C@@H]3CC[C@@H](N)[C@H](F)CO3)ccc2F)c(F)c1` [Example 199, N-(5-((2S,5R,6S)-5-amino-6-fluorooxepan-2-yl)-1-methyl-1H-pyrazol-4-yl)-6-(2,6-difluoro-4-(methoxymethyl)phenyl)-5-fluoropicolinamide]: the Ki is 0.031 nM.

With `Cn1ncc(NC(=O)c2csc(-c3cc(F)cc(F)c3F)n2)c1[C@@H]1CC[C@@H](N)[C@H](F)CO1` [Example 236, N-(5-((2S,5R,6S)-5-amino-6-fluorooxepan-2-yl)-1-methyl-1H-pyrazol-4-yl)-2-(2,3,5-trifluorophenyl)thiazole-4-carboxamide], the Ki turned out to be 0.255 nM.

In the case of `Cn1ncc(NC(=O)c2csc(-c3ncccc3F)n2)c1[C@@H]1CC[C@@H](N)[C@H](F)CO1` [Example 237, N-(5-((2S,5R,6S)-5-amino-6-fluorooxepan-2-yl)-1-methyl-1H-pyrazol-4-yl)-2-(3-fluoropyridin-2-yl)thiazole-4-carboxamide], the Ki worked out at 0.107 nM.

Regarding `Cn1ncc(NC(=O)c2csc(-c3c(F)cc(O[C@@H]4CCOC4)cc3F)n2)c1[C@@H]1CC[C@@H](N)[C@H](F)CO1` [Example 217], the Ki is 0.003 nM.

In the case of `Cn1ncc(NC(=O)c2csc(-c3ccccc3C(F)(F)F)n2)c1[C@@H]1CC[C@@H](N)[C@H](F)CO1` [Example 311, N-(5-((2S,5R,6S)-5-amino-6-fluorooxepan-2-yl)-1-methyl-1H-pyrazol-4-yl)-2-(2-(trifluoromethyl)phenyl)thiazole-4-carboxamide], the Ki came to 1.65 nM.

For the molecule `Cn1ncc(NC(=O)c2csc(-c3c(F)cccc3F)n2)c1[C@@H]1CC[C@@H](N)[C@H](O)CO1` [Example 352, N-(5-((2S,5R,6S)-5-amino-6-hydroxyoxepan-2-yl)-1-methyl-1H-pyrazol-4-yl)-2-(2,6-difluorophenyl)thiazole-4-carboxamide], the Ki is 0.174 nM.

Consider `Cn1ncc(NC(=O)c2csc(-c3c(F)cccc3F)n2)c1[C@H]1CC[C@H](N)[C@@H](O)CO1` [Example 353, N-(5-((2R,5S,6R)-5-amino-6-hydroxyoxepan-2-yl)-1-methyl-1H-pyrazol-4-yl)-2-(2,6-difluorophenyl)thiazole-4-carboxamide], for which the Ki came out at 0.111 nM.

Turning to `COc1cc(F)c(-c2nc(C(=O)Nc3cnn(C)c3[C@@H]3CC[C@@H](N)[C@@H](OC)CO3)cs2)c(F)c1` [Example 265, N-(5-((2S,5R,6R)-5-amino-6-methoxyoxepan-2-yl)-1-methyl-1H-pyrazol-4-yl)-2-(2,6-difluoro-4-methoxyphenyl)thiazole-4-carboxamide], the Ki amounted to 0.034 nM.

Turning to `C[C@H]1O[C@@H](c2c(NC(=O)c3nc(-c4c(F)cccc4F)sc3N)cnn2C)CC(F)(F)[C@@]1(C)N` [Example 184, 5-Amino-N-(5-((2R,5S,6R)-5-amino-4,4-difluoro-5,6-dimethyltetrahydro-2H-pyran-2-yl)-1-methyl-1H-pyrazol-4-yl)-2-(2,6-difluorophenyl)thiazole-4-carboxamide], the Ki is 0.484 nM.

Turning to `Cc1ccc(F)c(-c2nc(C(=O)Nc3cnn(C)c3[C@@H]3CC[C@@H](N)[C@H](F)CO3)cs2)c1F` [Example 303, N-(5-((2S,5R,6S)-5-amino-6-fluorooxepan-2-yl)-1-methyl-1H-pyrazol-4-yl)-2-(2,6-difluoro-3-methylphenyl)thiazole-4-carboxamide], the Ki is 0.013 nM.

On to `Cc1cccc(F)c1-c1nc(C(=O)Nc2cnn(C)c2[C@@H]2CC[C@@H](N)[C@H](F)CO2)c(N)s1` [Example 330, 5-amino-N-(5-((2S,5R,6S)-5-amino-6-fluorooxepan-2-yl)-1-methyl-1H-pyrazol-4-yl)-2-(2-fluoro-6-methylphenyl)thiazole-4-carboxamide], for which the Ki came to 0.016 nM.

Turning to `CO[C@H]1CO[C@H](c2c(NC(=O)c3nc(-c4c(F)cccc4Cl)sc3N)cnn2C)CC[C@H]1N` [Example 280, 5-amino-N-(5-((2S,5R,6R)-5-amino-6-methoxyoxepan-2-yl)-1-methyl-1H-pyrazol-4-yl)-2-(2-chloro-6-fluorophenyl)thiazole-4-carboxamide], the Ki is 0.014 nM.

For `Cn1ncc(NC(=O)c2csc(-c3cnn(C4CC4)c3)n2)c1[C@@H]1CC[C@@H](N)[C@H](F)CO1` [Example 235, N-(5-((2S,5R,6S)-5-amino-6-fluorooxepan-2-yl)-1-methyl-1H-pyrazol-4-yl)-2-(1-cyclopropyl-1H-pyrazol-4-yl)thiazole-4-carboxamide], the Ki was determined as 0.068 nM.

As to `Cn1ncc(NC(=O)c2ccc(F)c(-c3c(F)cccc3F)n2)c1[C@@H]1CC[C@@H](N)[C@H](F)CO1` [Example 195, N-(5-((2S,5R,6S)-5-amino-6-fluorooxepan-2-yl)-1-methyl-1H-pyrazol-4-yl)-6-(2,6-difluorophenyl)-5-fluoropicolinamide], the Ki came out at 0.025 nM.

For the molecule `Cn1ncc(NC(=O)c2nc(-c3c(F)cccc3F)sc2N)c1[C@H]1OC[C@@](C)(CO)CO1` [Example 166, 5-Amino-2-(2,6-difluorophenyl)-N-[5-[5-(hydroxymethyl)-5-methyl-1,3-dioxan-2-yl]-1-methyl-pyrazol-4-yl]thiazole-4-carboxamide], the Ki is 0.514 nM.

Regarding `Cn1ncc(NC(=O)c2nc(-c3ccccc3C(F)F)sc2N)c1[C@@H]1CC[C@@H](N)[C@H](F)CO1` [Example 335, 5-amino-N-(5-((2S,5R,6S)-5-amino-6-fluorooxepan-2-yl)-1-methyl-1H-pyrazol-4-yl)-2-(2-(difluoromethyl)phenyl)thiazole-4-carboxamide], the Ki stood at 0.092 nM.

Regarding `Cc1cccc(F)c1-c1nc(C(=O)Nc2cnn(C)c2[C@@H]2CC[C@@H](N)[C@H](F)CO2)cs1` [Example 315, N-(5-((2S,5R,6S)-5-amino-6-fluorooxepan-2-yl)-1-methyl-1H-pyrazol-4-yl)-2-(2-fluoro-6-methylphenyl)thiazole-4-carboxamide], the Ki is 0.091 nM.

With `COCCOc1cc(F)c(-c2nc(C(=O)Nc3cnn(C)c3[C@@H]3CC[C@@H](N)[C@@H](F)CO3)ccc2F)c(F)c1` [Example 189, N-(5-((2S,5R,6R)-5-Amino-6-fluorooxepan-2-yl)-1-methyl-1H-pyrazol-4-yl)-6-(2,6-difluoro-4-(2-methoxyethoxy)phenyl)-5-fluoropicolinamide], the inhibition constant (Ki) worked out at 0.025 nM.

Take `Cn1ncc(NC(=O)c2nc(-c3ccc(C(F)(F)F)cc3F)sc2N)c1[C@@H]1CC[C@@H](N)[C@@H](F)CO1` [Example 259, 5-amino-N-(5-((2S,5R,6R)-5-amino-6-fluorooxepan-2-yl)-1-methyl-1H-pyrazol-4-yl)-2-(2-fluoro-4-(trifluoromethyl)phenyl)thiazole-4-carboxamide]: the Ki was determined as 0.01 nM.

As to `Cn1ncc(NC(=O)c2nc(-c3c(F)cccc3F)sc2N)c1C1=CCOCC1` [Example 101, 5-amino-2-(2,6-difluorophenyl)-N-[5-(3,6-dihydro-2H-pyran-4-yl)-1-methyl-pyrazol-4-yl]thiazole-4-carboxamide], the Ki was determined as 0.485 nM.

`Cn1ncc(NC(=O)c2nc(-c3c(F)cccc3F)sc2N)c1C1CC(F)(F)CC(N)CO1` (centres unmarked) [Example 132, 5-amino-N-[5-(6-amino-4,4-difluoro-oxepan-2-yl)-1-methyl-pyrazol-4-yl]-2-(2,6-difluorophenyl)thiazole-4-carboxamide]: the Ki came out at 0.014 nM.

On to `Cn1ncc(NC(=O)c2nc(-c3c(F)cccc3F)sc2N)c1[C@@H]1CC(F)[C@H](N)CCO1` (stereo partly drawn) [Example 150, 5-Amino-N-[5-[(2S,5R)-5-amino-4-fluoro-oxepan-2-yl]-1-methyl-pyrazol-4-yl]-2-(2,6-difluorophenyl)thiazole-4-carboxamide], for which the Ki was determined as 0.105 nM.

Turning to `CCC(=O)c1cc(F)c(-c2nc(C(=O)Nc3cnn(C)c3[C@@H]3CC[C@@H](N)[C@H](F)CO3)ccc2F)c(F)c1` [Example 205, N-(5-((2S,5R,6S)-5-amino-6-fluorooxepan-2-yl)-1-methyl-1H-pyrazol-4-yl)-6-(2,6-difluoro-4-propionylphenyl)-5-fluoropicolinamide], the Ki came to 0.034 nM.

For `CO[C@H]1CO[C@H](c2c(NC(=O)c3nc(-c4ccccc4C(F)(F)F)sc3N)cnn2C)CC[C@H]1N` [Example 220, 5-amino-N-(5-((2S,5R,6R)-5-amino-6-methoxyoxepan-2-yl)-1-methyl-1H-pyrazol-4-yl)-2-(2-(trifluoromethyl)phenyl)thiazole-4-carboxamide], the Ki is 0.083 nM.

Regarding `COc1cc(F)c(-c2nc(C(=O)Nc3cnn(C)c3[C@@H]3CC[C@@H](N)[C@@H](F)CO3)ccc2F)c(F)c1` [Example 187, N-(5-((2S,5R,6R)-5-Amino-6-fluorooxepan-2-yl)-1-methyl-1H-pyrazol-4-yl)-6-(2,6-difluoro-4-methoxyphenyl)-5-fluoropicolinamide], the Ki is 0.027 nM.

With `Cn1ncc(NC(=O)c2nc(-c3ccccc3OC(F)(F)F)sc2N)c1[C@@H]1CC[C@@H](N)[C@H](F)CO1` [Example 157, 5-amino-N-(5-((2S,5R,6S)-5-amino-6-fluorooxepan-2-yl)-1-methyl-1H-pyrazol-4-yl)-2-(2-(trifluoromethoxy)phenyl)thiazole-4-carboxamide], the Ki is 0.965 nM.

In the case of `Cn1cc(-c2nc(C(=O)Nc3cnn(C)c3[C@@H]3CC[C@@H](N)[C@@H](F)CO3)cs2)c(C2CC2)n1` [Example 253, N-(5-((2S,5R,6R)-5-amino-6-fluorooxepan-2-yl)-1-methyl-1H-pyrazol-4-yl)-2-(3-cyclopropyl-1-methyl-1H-pyrazol-4-yl)thiazole-4-carboxamide], the Ki was 0.253 nM.

As for `Cn1ncc(NC(=O)c2csc(-n3cc4c(n3)CCCC4)n2)c1[C@@H]1CC[C@@H](N)[C@H](F)CO1` [Example 390, N-(5-((2S,5R,6S)-5-amino-6-fluorooxepan-2-yl)-1-methyl-1H-pyrazol-4-yl)-2-(4,5,6,7-tetrahydro-2H-indazol-2-yl)thiazole-4-carboxamide], the Ki was 0.267 nM.

Broadly, the Ki is a measure of affinity in units of concentration, obtained from inhibition or displacement.
